# Patent publication US20100255580A1, “Differentiation of Human Embryonic Stem Cells” (LIFESCCAN, INC., priority 2007, published 2010)
# B1: Wnt-1: Wnt ligand (PeproTech, NJ, Catalogue #120-17) (protein, UniProt P04628 28-370, looked up)
# Proto-oncogene Wnt-1: ANSSGRWWGIVNVASSTNLLTDSKSLQLVLEPSLQLLSRKQRRLIRQNPGILHSVSGGLQSAVRECKWQFRNRRWNCPTAPGPHLFGKIVNRGCRETAFIFAITSAGVTHSVARSCSEGSIESCTCDYRRRGPGGPDWHWGGCSDNIDFGRLFGREFVDSGEKGRDLRFLMNLHNNEAGRTTVFSEMRQECKCHGMSGSCTVRTCWMRLPTLRAVGDVLRDRFDGASRVLYGNRGSNRASRAELLRLEPEDPAHKPPSPHDLVYFEKSPNFCTYSGRLGTAGTAGRACNSSSPALDGCELLCCGRGHRTRTQRVTERCNCTFHWCCHVSCRNCTHTRVLHECL
# B2: FGF10: member of the fibroblast growth factor family (protein, UniProt O15520 38-208, looked up)
# Fibroblast growth factor 10: QALGQDMVSPEATNSSSSSFSSPSSAGRHVRSYNHLQGDVRWRKLFSFTKYFLKIEKNGKVSGTKKENCPYSILEITSVEIGVVAVKAINSNYYLAMNKKGKLYGSKEFNNDCKLKERIEENGYNTYASFNWQHNGRQMYVALNGKGAPRRGQKTRRKNTSAHFLPMVVHS
# Assays:
# [1] = test system: human embryonic stem cell line H9; assay: Real-time PCR of marker gene expression, H9 on MEF (Examples 2-7); assay type: cell-based
# Experimental: Cells were harvested at the time points indicated in FIG. 3 and assayed by PCR for the expression of genes shown (FIGS. 3, 4 and 5).
# After this time interval, the cells were then treated for six days with combinations of retinoic acid and FGF as outlined in Example 2, then the culture medium was removed and replaced with medium comprising DMEM/F12 with 2% FBS, containing the γ-secretase inhibitors L-685,458 at 10 μM for three days.
# Cells were continuously cultured for another 3 to 5 days in basal medium with retinoic acid at 1 μM, alone or with bFGF. RNA samples were harvested from cells at various time points along this process to help evaluate the directed differentiation of the cells. Furthermore, culture medium and factors were regularly removed and replenished throughout the differentiation protocol.
# RNA extraction, purification, and cDNA synthesis. RNA samples were purified by binding to a silica-gel membrane (Rneasy Mini Kit, Qiagen, CA) in the presence of an ethanol-containing, high-salt buffer followed by washing to remove contaminants. The RNA was further purified using a TURBO DNA-free kit (Ambion, INC), and high-quality RNA was then eluted in water. Yield and purity were assessed by A260 and A280 readings on a spectrophotometer. cDNA copies were made from purified RNA using an ABI (ABI, CA) high capacity cDNA archive kit.
# Real-time PCR amplification and quantitative analysis.
# Final data were expressed relative to a calibrator sample.
# [2] = test system: H9P49 embryonic stem cells; assay: Real-time PCR of pancreatic endoderm markers, evaluation of retinoic acid analogues; assay type: cell-based, human
# Experimental: At day 5, cells were collected for evaluation by FACS and real-time PCR. […] The resulting definitive endoderm cells at day 5 were exposed to the following media conditions to induce pancreatic endoderm formation: culturing in DMEM/F 12 media supplemented with 2% FBS and 1 μM all-trans retinoic acid (RA) (Catalog#R2625, Sigma, MO), or 0.1-10 μM AM-580 (4-[(5,6,7,8-Tetrahydro-5,5,8,8-tetramethyl-2-naphthalenyl)carboxamido]benzoic acid, Catalog #A8843, Sigma, MO), or 0.1-1 μM TTNPB (4-[(E)-2-(5,6,7,8-Tetrahydro-5,5,8,8-tetramethyl-2-naphthalenyl)-1-propenyl]benzoic acid Arotinoid acid, Catalog #T3757, Sigma, MO) for 3 days. AM-580 and TTNPB are retinoic acid analogs with affinity for retinoic acid receptors. RA treatment was followed by additional three day treatment in DMEM/F12 media supplemented with 2% FBS and 20-50 ng/ml bFGF (Catalog #F0291, Sigma, MO).
# [3] = test system: human embryonic stem cell line H1; assay: Real-time PCR of definitive endoderm markers, H1 on human serum or […] (Examples 30, 31, 35); assay type: cell-based
# Experimental: Cultures of the human embryonic stem cell line H1 at passage 55 were grown and differentiated on human serum (Sigma, #H1388, MO) coated plates. 0.5 ml of human serum was added to each well of 6 well tissue culture treated dish, incubated for 1 hr at room temperature, and aspirated before adding human embryonic stem cells. After cells reached 80% confluency, they were treated as follows: 2 days 0.5% FBS containing 10 ng/ml mouse recombinant Wnt3a (R&D) or 100 nM GSK-3B inhibitor IX (Catalog #361550, Calbiochem, CA) and 100 ng/mlActivin A (R&D). This was followed by 3 days 2% FBS plus 100 ng/mlActivin A. Cultures were then analyzed by real-time PCR (FIG. 46, panels a & b). […] These findings parallel our findings for human embryonic stem cells cultured on […]™ or human fibronectin coated plates.
# The effectiveness of a number of commercially available GSK-3B inhibitors was evaluated in formation of DE from human embryonic stem cells. The following GSK-3B inhibitors were evaluated at 100 nM: GSK-3B inhibitor VIII (Catalog #361549, Calbiochem, CA), GSK-3B inhibitor IX (Catalog #361550, Calbiochem, CA), GSK-3B inhibitor XI (Catalog #361553, Calbiochem, CA), GSK-3B inhibitor XII (Catalog #361554, Calbiochem, CA). […] Control cultures were treated with low serum plus high dose of AA. FIG. 47, panels a and b depicts the gene expression of definitive endoderm markers at day 5. GSK-3B inhibitor IX and XI were both effective in inducing DE formation as compared to GSK-3B inhibitor VIII and XII.
# The following combinations of WNT1+AA were tested:
# a) 20 ng/ml of WNT1+100 ng/ml AA in 0.5% FBS+DM-F12 for days 1-2 followed by 2% FBS+DM-F12+100 ng/ml AA for day three, b) 20 ng/ml of WNT1+100 ng/ml AA in 0.5% FBS+DM-F12 for days 1-2 followed by 2% FBS+DM-F12+100 ng/ml AA for days 3-5, c) 10 ng/ml of WNT1+100 ng/ml AA in 0.5% FBS+DM-F12 for days 1-2 followed by 2% FBS+DM-F12+100 ng/ml AA for day three, d) 10 ng/ml of WNT1+100 ng/ml AA in 0.5% FBS+DM-F12 for days 1-2 followed by 2% FBS+DM-F12+100 ng/ml AA for days 3-5, e) 20 ng/ml of WNT1+100 ng/ml AA in 0.5% FBS+DM-F12 for days 1-2 followed by 2% FBS+DM-F12+100 ng/ml AA+20 ng/ml of WNT1 for day three, f) 20 ng/ml of WNT1+100 ng/ml AA in 0.5% FBS+DM-F12 for days 1-2 followed by 2% FBS+DM-F12+100 ng/ml AA+20 ng/ml of WNT1 for days 3-5.
# [4] = test system: pancreatic endoderm cells derived from human embryonic stem cells; assay: Passage and expansion of pancreatic endoderm cells in culture; assay type: cell-based; settings: 50 ng/ml FGF10; 6 day culture period
# Experimental: The low serum DMEM/F12 contained 0% (v/v) fetal bovine serum (FBS) on day 1, 0.5% (v/v) FBS on day two and 2% (v/v) FBS on each day thereafter. After four days of differentiation, the cells were cultured in low serum DMEM/F12 contained 2% (v/v) FBS, 1 μM retinoic acid and 50 ng/ml bFGF for a total of six more days. After the six days of differentiation, the cells were maintained in culture in low serum DMEM/F12 contained 2% (v/v) FBS in the presence of 50 ng/ml FGF10 for a total of 6 days. During the six-day culture period, the pancreatic endoderm cells were passaged twice and cell population-doubling time is about 36 to 48 hours during this 6-day culture. On days 0, 3, and 6 of culture, Q-PCR was used to measure the expression of marker genes indicative of pancreatic endoderm.
# [5] = 1 μM RA followed by exposure to bFGF
molecule,measurement,setting,value
"CC1=C(/C=C/C(C)=C/C=C/C(C)=C/C(=O)O)C(C)(C)CCC1 [retinoic acid, all-trans retinoic acid, reference compound]",expression of GLUT-2 and PTF1a,[1]; 1 μM retinoic acid and bFGF in the absence of activin A,increase
same,expression of Pdx1,[1]; activin A or retinoic acid alone,did not induce
same,expression of α-fetoprotein (AFP) and albumin,[1]; retinoic acid and FGF-4 for five days after 7 days activin A,further increased
same,level of Pdx1 expression versus activin A treatment alone for 5 days,"[1]; three days activin A, then 5 days 1 μM retinoic acid and 50 ng/ml bFGF in the absence of activin A",approximately 3500 fold
same,"foregut endoderm markers, such as CDX-2 and AFP",[2]; [5],robust expression
same,"pancreatic endoderm markers, such as PDX-1",[2]; [5],significantly upregulates
"CC1(C)CCC(C)(C)c2cc(C(=O)Nc3ccc(C(=O)O)cc3)ccc21 [AM-580, 4-[(5,6,7,8-Tetrahydro-5,5,8,8-tetramethyl-2-naphthalenyl)carboxamido]benzoic acid]",AFP and CDX-2 expression,[2]; 10 μM AM-580,suppressed
same,expression of PDX-1,[2]; 10 μM AM-580,high expression
O=C1NC(=O)C(c2cn(CCCO)c3ncccc23)=C1c1cnccn1 [GSK-3B inhibitor XI],inducing DE formation,"[3]; H1P54 on MATRIGEL, 100 nM for first two days, compared to GSK-3B inhibitor VIII and XII",effective
B1,"definitive endoderm markers (Bry, CXCR4, GSC, SOX17, HNF-3B, and GATA-4)","[3]; H1P55 on MATRIGEL, 20 ng/ml Wnt1 with 100 ng/ml of AA",significant upregulation
B2,expression of the pancreatic endoderm marker Pdx1,[4],maintained expression
